Consider one molecule from patent US7247748B2, “Amide compounds and methods of using the same” (SmithKline Corporation, priority 2002, dated 2007).

Molecules are shown by their SMILES.

For test [1], the target named is T1, human LXRβ ligand binding domain (Homo sapiens, UniProt P55055).
T1 construct: made in house; host or cells: E. coli BL21(DE3), vector pRSETa
T1 sequence (P55055 184-460 limits assumed): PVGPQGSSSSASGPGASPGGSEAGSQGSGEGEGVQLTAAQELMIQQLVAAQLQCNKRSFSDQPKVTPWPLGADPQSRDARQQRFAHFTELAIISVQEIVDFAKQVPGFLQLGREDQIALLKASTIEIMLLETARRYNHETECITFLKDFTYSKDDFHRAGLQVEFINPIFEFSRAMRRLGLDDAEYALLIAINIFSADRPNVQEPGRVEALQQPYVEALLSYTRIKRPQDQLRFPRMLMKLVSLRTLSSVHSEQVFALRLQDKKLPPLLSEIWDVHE
T1 sequence (Q15788 676-700 partner limits assumed): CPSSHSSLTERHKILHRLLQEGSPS
The experiment in a line: Ligand Sensing Assay (LiSA) for LXRβ agonist activity (SRC1 peptide recruitment). The test is classed as biochemical. The conditions noted are these: 1 μM; over a background reading of 10000 fluorescence units. The source says: (§1) Test Method 1: Ligand Sensing Assay (LiSA) for LXRβ Agonist Activity
(§2) This assay measures the recruitment of a peptide derived from the coactivator protein, SRC1, to the agonist-bound LXR[…]. Peptides derived from other nuclear receptor cofactors may be similarly prepared and assayed.
To generate the human LXRβ ligand binding domain suitable for LiSA, a modified polyhistidine tag (MKKGHHHHHHG) (SEQ ID No. 1) was fused in frame to the human LXRβ ligand binding domain (amino acids 185–461 of Genbank accession number U07132) and subcloned into the expression vector pRSETa (Invitrogen) under the control of an IPTG inducible T7 promoter. The human LXRβ ligand binding domain was expressed in E. coli strain BL21(DE3). Ten-liter fermentation batches were grown in Rich PO4 media with 0.1 mg/mL Ampicillin at 25° C. for 12 hours, cooled to 9° C. and held at that temperature for 36 hours to a density of OD600=14. […]
Typically 25–50 g of cell paste is resuspended in 250–500 mL TBS, pH 8.0 (25 mM Tris, 150 mM NaCl). […] After washing to baseline absorbance with equilibration buffer, the column is washed with approximately one column volume of TBS pH […] containing 95 mM imidazole. […] After washing to baseline absorbance with the dilution buffer the protein is eluted with a gradient from 50–500 mM NaCl. […]

The target in test [2] is T2, LXRα ligand binding domain (Homo sapiens, UniProt Q13133).
T2 construct: His tag; made in house; host or cells: E. coli BL21(DE3) by analogy with Test Method 1 (inferred)
T2 sequence (Q13133 183-447): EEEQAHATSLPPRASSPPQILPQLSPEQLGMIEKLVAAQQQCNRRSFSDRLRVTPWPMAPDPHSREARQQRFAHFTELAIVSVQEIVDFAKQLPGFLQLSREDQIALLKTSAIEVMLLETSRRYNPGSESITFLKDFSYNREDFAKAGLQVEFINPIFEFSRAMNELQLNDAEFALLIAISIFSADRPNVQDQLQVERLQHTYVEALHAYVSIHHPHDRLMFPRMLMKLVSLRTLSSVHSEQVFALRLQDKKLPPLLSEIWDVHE
T2 sequence (Q15788 676-700 partner): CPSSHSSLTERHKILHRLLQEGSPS
The experiment in a line: Ligand Sensing Assay for LXRα agonist activity. The test is classed as biochemical. The conditions noted are these: 1 μM; over a background reading of 10000 fluorescence units. The protocol: as §1, §2
The biotinylated protein was incubated for 20–25 minutes at a concentration of 5 nM in assay buffer (50 mM NaF, 50 mM MOPS-pH 7.5, 0.1 mg/ml FAF-BSA, 0.05 mM CHAPS, 10 mM DTT) with equimolar amounts of streptavidin-AlloPhycoCyanin (APC, Molecular Probes). […]
49 uL of the protein/peptide mixture was added to each well of an assay plate containing 1 ul of test compound serial diluted in 100% DMSO. […] The plates were incubated at room temp 2-hours and then counted on a Wallac Victor V fluorescent plate reader. […]
The assay for LXRα was run according to the procedures of Test Method 1, above using his-tagged LXRα ligand binding domain (amino acids 183–447 of Genbank accession number U22662, with the 14th amino acid corrected to A from R). In this assay 1 μM 24(S),25-epoxycholesterol gave a reading of 20000 fluorescence units over a background reading of 10000 fluorescence units.

Take `C[C@H](CC[C@@H]1OC1(C)C)[C@H]1CC[C@H]2[C@@H]3CC=C4C[C@@H](O)CC[C@]4(C)[C@H]3CC[C@]12C` [24(S),25-epoxycholesterol]: the reading in test [1] and in test [2] was 20000 fluorescence units each time.
